In the kinase profiling compilation of Christmann-Franck et al. (2016):

What was measured:
Experiment in all cases: radiometric filter-binding kinase assay, Kinase HotSpot
Conditions in all cases: compound 0.5 µM; ATP 10 µM
CDK2 CCNA2 (human) = CDK2 CCNA2 (human) (UniProt P24941+P20248)
IRAK4 (human) = IRAK4 (human) (UniProt Q9NWZ3)
DMPK (human) = DMPK (human) (UniProt Q09013)
MARK3 (human) = MARK3 (human) (UniProt P27448)
CHEK1 (human) = CHEK1 (human) (UniProt O14757)
CAMK4 (human) = CAMK4 (human) (UniProt Q16566)
PASK (human) = PASK (human) (UniProt Q96RG2)
MAP3K8 (human) = MAP3K8 (human) (UniProt P41279)
CDK9 CCNT1 (human) = CDK9 CCNT1 (human) (UniProt P50750+O60563)
EPHB1 (human) = EPHB1 (human) (UniProt P54762)
NEK11 (human) = NEK11 (human) (UniProt Q8NG66)
TEC (human) = TEC (human) (UniProt P42680)
PRKD3 (human) = PRKD3 (human) (UniProt O94806)
STK38 (human) = STK38 (human) (UniProt Q15208)
CLK3 (human) = CLK3 (human) (UniProt P49761)
PRKCG (human) = PRKCG (human) (UniProt P05129)
BLK (human) = BLK (human) (UniProt P51451)
MAPK1 (human) = MAPK1 (human) (UniProt P28482)
ULK3 (human) = ULK3 (human) (UniProt Q6PHR2)
CSK (human) = CSK (human) (UniProt P41240)
PRKCB2 (human) = PRKCB2 (human) (UniProt P05771)
PRKD2 (human) = PRKD2 (human) (UniProt Q9BZL6)
ITK (human) = ITK (human) (UniProt Q08881)
ULK1 (human) = ULK1 (human) (UniProt O75385)
PRKACG (human) = PRKACG (human) (UniProt P22612)
MYO3B (human) = MYO3B (human) (UniProt Q8WXR4)
EPHA6 (human) = EPHA6 (human) (UniProt Q9UF33)
NUAK2 (human) = NUAK2 (human) (UniProt Q9H093)
OXSR1 (human) = OXSR1 (human) (UniProt O95747)
HIPK3 (human) = HIPK3 (human) (UniProt Q9H422)
TLK2 (human) = TLK2 (human) (UniProt Q86UE8)
MAP3K14 (human) = MAP3K14 (human) (UniProt Q99558)
DYRK1A (human) = DYRK1A (human) (UniProt Q13627)
EPHA4 (human) = EPHA4 (human) (UniProt P54764)
AURKC (human) = AURKC (human) (UniProt Q9UQB9)
MKNK2 (human) = MKNK2 (human) (UniProt Q9HBH9)
TBK1 (human) = TBK1 (human) (UniProt Q9UHD2)
EGFR (human) = EGFR (human) (UniProt P00533)
PDGFRB (human) = PDGFRB (human) (UniProt P09619)

Chain of OXSR1 (human) (O95747 whole entry, looked up): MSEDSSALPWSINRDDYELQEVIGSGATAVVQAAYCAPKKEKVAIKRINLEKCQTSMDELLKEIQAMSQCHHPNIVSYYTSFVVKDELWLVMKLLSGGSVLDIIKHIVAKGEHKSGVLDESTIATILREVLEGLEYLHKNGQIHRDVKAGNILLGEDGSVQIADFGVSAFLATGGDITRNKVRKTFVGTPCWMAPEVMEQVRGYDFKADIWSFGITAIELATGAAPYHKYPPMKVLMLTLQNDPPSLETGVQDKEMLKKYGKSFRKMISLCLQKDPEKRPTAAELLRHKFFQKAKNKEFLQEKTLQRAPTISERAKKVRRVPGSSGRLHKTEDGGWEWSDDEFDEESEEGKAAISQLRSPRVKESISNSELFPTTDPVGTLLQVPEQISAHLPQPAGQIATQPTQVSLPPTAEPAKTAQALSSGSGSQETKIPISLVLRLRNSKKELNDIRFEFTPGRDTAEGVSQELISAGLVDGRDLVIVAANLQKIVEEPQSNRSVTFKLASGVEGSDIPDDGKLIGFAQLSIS
Chain of PRKD3 (human) (O94806 whole entry, looked up): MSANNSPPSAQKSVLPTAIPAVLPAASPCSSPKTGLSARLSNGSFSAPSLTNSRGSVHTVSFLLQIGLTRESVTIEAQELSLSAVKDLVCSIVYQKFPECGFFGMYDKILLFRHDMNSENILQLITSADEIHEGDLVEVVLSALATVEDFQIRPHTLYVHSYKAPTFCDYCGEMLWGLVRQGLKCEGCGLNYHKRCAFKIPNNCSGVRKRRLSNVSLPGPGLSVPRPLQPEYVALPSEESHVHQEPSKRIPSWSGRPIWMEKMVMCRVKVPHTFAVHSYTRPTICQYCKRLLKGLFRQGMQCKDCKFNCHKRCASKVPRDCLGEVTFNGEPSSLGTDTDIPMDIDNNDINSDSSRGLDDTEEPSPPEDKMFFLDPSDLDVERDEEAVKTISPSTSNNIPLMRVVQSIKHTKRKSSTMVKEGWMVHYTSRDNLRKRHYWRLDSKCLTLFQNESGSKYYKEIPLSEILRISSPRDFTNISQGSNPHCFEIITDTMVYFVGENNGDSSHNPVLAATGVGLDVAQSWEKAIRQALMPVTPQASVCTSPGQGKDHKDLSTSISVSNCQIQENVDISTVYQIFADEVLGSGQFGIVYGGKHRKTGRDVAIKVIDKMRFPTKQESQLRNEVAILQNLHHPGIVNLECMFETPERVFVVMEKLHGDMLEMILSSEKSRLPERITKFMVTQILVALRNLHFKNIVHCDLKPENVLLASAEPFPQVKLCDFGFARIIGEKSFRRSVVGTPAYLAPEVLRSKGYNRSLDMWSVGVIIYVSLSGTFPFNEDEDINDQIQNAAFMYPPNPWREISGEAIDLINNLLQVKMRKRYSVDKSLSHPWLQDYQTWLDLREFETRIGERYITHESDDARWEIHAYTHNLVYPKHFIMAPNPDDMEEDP
Chain of NUAK2 (human) (Q9H093 whole entry, looked up): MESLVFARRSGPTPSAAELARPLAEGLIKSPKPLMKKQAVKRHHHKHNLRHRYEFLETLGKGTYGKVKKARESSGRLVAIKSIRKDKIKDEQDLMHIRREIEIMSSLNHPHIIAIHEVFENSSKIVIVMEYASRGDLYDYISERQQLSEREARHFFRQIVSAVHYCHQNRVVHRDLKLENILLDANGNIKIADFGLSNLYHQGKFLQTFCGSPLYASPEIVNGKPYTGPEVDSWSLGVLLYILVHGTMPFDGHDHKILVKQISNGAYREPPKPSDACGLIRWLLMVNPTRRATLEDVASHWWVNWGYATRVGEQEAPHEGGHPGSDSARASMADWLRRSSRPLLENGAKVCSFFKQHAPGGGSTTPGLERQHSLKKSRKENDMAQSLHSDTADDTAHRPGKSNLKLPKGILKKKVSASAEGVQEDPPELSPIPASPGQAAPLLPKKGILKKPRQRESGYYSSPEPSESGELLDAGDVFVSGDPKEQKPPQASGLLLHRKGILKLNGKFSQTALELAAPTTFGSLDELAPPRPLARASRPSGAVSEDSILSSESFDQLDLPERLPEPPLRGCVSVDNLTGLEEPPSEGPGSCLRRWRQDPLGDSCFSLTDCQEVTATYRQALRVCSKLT
Chain of EPHB1 (human) (P54762 whole entry, looked up): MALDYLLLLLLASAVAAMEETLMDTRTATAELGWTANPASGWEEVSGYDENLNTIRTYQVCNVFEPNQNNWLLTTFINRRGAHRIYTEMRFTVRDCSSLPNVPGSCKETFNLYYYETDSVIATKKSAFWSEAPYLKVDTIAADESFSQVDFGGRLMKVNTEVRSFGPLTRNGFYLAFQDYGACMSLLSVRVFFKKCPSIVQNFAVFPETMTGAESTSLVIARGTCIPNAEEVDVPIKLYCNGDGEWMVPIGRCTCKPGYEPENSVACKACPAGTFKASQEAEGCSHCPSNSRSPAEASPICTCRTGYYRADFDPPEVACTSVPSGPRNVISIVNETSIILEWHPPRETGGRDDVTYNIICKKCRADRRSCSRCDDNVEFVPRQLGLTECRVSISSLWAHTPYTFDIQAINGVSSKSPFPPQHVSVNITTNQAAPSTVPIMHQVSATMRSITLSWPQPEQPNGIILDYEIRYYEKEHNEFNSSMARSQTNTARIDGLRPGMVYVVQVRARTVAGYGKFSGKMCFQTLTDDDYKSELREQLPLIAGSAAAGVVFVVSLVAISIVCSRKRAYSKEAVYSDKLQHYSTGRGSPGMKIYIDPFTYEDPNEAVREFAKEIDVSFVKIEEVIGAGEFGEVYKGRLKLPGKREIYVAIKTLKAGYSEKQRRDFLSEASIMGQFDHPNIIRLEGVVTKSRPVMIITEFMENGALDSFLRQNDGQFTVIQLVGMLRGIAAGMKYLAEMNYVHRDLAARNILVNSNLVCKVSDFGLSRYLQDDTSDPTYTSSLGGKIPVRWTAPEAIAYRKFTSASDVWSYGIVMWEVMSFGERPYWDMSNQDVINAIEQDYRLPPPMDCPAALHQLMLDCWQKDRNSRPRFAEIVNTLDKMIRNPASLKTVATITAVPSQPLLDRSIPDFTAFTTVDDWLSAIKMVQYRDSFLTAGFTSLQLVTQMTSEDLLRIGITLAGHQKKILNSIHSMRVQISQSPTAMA
Chain of PASK (human) (Q96RG2 whole entry, looked up): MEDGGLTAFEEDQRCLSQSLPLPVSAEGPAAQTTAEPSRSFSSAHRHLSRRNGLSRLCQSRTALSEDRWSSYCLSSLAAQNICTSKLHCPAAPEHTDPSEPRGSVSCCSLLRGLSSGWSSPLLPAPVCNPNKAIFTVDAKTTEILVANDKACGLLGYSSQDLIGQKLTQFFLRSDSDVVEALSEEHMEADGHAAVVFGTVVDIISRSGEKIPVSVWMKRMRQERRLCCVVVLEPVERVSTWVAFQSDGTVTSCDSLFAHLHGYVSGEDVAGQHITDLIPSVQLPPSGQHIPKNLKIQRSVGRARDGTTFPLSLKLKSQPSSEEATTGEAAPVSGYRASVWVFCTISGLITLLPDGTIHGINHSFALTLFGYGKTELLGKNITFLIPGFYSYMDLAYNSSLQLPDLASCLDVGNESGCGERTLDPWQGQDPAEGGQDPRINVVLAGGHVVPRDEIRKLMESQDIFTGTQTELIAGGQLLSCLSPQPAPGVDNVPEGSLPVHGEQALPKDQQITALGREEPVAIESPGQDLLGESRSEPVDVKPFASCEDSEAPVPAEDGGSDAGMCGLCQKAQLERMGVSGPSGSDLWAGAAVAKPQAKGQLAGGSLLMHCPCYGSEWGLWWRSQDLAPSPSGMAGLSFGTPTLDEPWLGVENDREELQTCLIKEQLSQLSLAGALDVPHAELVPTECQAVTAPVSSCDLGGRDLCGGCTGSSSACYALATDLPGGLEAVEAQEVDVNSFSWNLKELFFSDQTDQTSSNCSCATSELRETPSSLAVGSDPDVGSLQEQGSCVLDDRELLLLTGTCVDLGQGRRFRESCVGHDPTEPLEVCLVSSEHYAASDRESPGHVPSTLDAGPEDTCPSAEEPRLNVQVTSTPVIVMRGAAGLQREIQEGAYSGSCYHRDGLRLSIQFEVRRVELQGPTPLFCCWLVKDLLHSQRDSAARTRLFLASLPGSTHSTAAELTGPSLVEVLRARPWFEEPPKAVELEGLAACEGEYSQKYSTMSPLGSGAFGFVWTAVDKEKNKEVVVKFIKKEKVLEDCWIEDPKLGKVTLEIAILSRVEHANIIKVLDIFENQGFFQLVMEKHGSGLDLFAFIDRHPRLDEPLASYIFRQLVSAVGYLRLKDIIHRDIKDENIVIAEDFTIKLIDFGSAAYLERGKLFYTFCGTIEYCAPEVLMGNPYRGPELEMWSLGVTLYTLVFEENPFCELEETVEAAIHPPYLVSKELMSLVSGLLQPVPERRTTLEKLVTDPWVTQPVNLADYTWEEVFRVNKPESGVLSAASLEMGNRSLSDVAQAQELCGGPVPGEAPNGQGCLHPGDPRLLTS
Chain of BLK (human) (P51451 whole entry, looked up): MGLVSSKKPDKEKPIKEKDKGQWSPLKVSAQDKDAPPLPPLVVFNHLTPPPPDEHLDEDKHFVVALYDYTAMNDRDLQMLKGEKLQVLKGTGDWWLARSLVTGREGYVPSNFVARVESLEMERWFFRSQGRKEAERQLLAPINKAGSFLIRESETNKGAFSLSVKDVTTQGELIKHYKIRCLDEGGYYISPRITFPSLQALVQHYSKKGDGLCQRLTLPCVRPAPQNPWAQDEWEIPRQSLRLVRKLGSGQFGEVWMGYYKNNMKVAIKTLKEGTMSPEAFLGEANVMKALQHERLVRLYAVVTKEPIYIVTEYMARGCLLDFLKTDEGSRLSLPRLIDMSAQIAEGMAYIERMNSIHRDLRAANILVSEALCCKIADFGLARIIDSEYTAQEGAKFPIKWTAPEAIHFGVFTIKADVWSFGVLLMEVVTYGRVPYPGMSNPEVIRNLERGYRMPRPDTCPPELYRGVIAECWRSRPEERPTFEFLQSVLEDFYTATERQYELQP

C#Cc1cccc(Nc2ncnc3cc(OCCOC)c(OCCOC)cc23)c1
residual activity (CDK2 CCNA2 (human)): 95.9%
residual activity (IRAK4 (human)): 93.8%
residual activity (DMPK (human)): 96.9%
residual activity (MARK3 (human)): 96.4%
residual activity (CHEK1 (human)): 95.1%
residual activity (CAMK4 (human)): 94.8%
residual activity (PASK (human)): 97.4%
residual activity (MAP3K8 (human)): 91.8%
residual activity (CDK9 CCNT1 (human)): 87.3%
residual activity (EPHB1 (human)): 100%
residual activity (NEK11 (human)): 114%
residual activity (TEC (human)): 96.2%
residual activity (PRKD3 (human)): 86.5%
residual activity (STK38 (human)): 101%
residual activity (CLK3 (human)): 108%
residual activity (PRKCG (human)): 84.1%
residual activity (BLK (human)): 79.4%
residual activity (MAPK1 (human)): 116%
residual activity (ULK3 (human)): 105%
residual activity (CSK (human)): 100%
residual activity (PRKCB2 (human)): 98.6%
residual activity (PRKD2 (human)): 85.9%
residual activity (ITK (human)): 106%
residual activity (ULK1 (human)): 113%
residual activity (PRKACG (human)): 108%
residual activity (MYO3B (human)): 84.4%
residual activity (EPHA6 (human)): 40.4%
residual activity (NUAK2 (human)): 95.3%
residual activity (OXSR1 (human)): 102%
residual activity (HIPK3 (human)): 102%
residual activity (TLK2 (human)): 85.9%

CCCNC(=O)Nc1ccc(Oc2ncnc3cc(OC)c(OC)cc23)cc1Cl
residual activity (CDK2 CCNA2 (human)): 92.8%
residual activity (MAP3K14 (human)): 109%
residual activity (IRAK4 (human)): 92%
residual activity (DYRK1A (human)): 96.9%
residual activity (DMPK (human)): 100%
residual activity (EPHA4 (human)): 93.4%
residual activity (MARK3 (human)): 95.3%
residual activity (CHEK1 (human)): 77%
residual activity (CAMK4 (human)): 99.1%
residual activity (AURKC (human)): 71.6%
residual activity (PASK (human)): 87.7%
residual activity (MAP3K8 (human)): 104%
residual activity (CDK9 CCNT1 (human)): 98%
residual activity (EPHB1 (human)): 95.5%
residual activity (NEK11 (human)): 101%
residual activity (TEC (human)): 119%
residual activity (MKNK2 (human)): 81.3%
residual activity (PRKD3 (human)): 93.4%
residual activity (TBK1 (human)): 90%
residual activity (STK38 (human)): 87.9%
residual activity (CLK3 (human)): 98.8%
residual activity (PRKCG (human)): 120%
residual activity (BLK (human)): 96.8%
residual activity (MAPK1 (human)): 101%
residual activity (ULK3 (human)): 80.7%
residual activity (CSK (human)): 100%
residual activity (PRKCB2 (human)): 93.6%
residual activity (PRKD2 (human)): 94.3%
residual activity (ITK (human)): 96.9%
residual activity (ULK1 (human)): 83.2%
residual activity (PRKACG (human)): 106%
residual activity (EGFR (human)): 88.1%
residual activity (MYO3B (human)): 76.2%
residual activity (EPHA6 (human)): 77.7%
residual activity (NUAK2 (human)): 123%
residual activity (OXSR1 (human)): 96.5%
residual activity (HIPK3 (human)): 96.2%
residual activity (TLK2 (human)): 99.5%

O=c1cc(N2CCNCC2)oc2c(-c3ccccc3)cccc12
residual activity (CDK2 CCNA2 (human)): 104%
residual activity (MAP3K14 (human)): 110%
residual activity (IRAK4 (human)): 96.8%
residual activity (DYRK1A (human)): 96.8%
residual activity (DMPK (human)): 96.2%
residual activity (EPHA4 (human)): 100%
residual activity (MARK3 (human)): 88.8%
residual activity (CHEK1 (human)): 104%
residual activity (CAMK4 (human)): 104%
residual activity (AURKC (human)): 97.6%
residual activity (PDGFRB (human)): 101%
residual activity (PASK (human)): 93%
residual activity (MAP3K8 (human)): 95.2%
residual activity (CDK9 CCNT1 (human)): 98.8%
residual activity (EPHB1 (human)): 94.8%
residual activity (NEK11 (human)): 97.9%
residual activity (TEC (human)): 99.8%
residual activity (MKNK2 (human)): 107%
residual activity (PRKD3 (human)): 88.6%
residual activity (TBK1 (human)): 98.7%
residual activity (STK38 (human)): 94.3%
residual activity (CLK3 (human)): 109%
residual activity (PRKCG (human)): 96.1%
residual activity (BLK (human)): 122%
residual activity (MAPK1 (human)): 65.4%
residual activity (ULK3 (human)): 101%
residual activity (CSK (human)): 89.7%
residual activity (PRKCB2 (human)): 101%
residual activity (PRKD2 (human)): 86.7%
residual activity (ITK (human)): 88.1%
residual activity (ULK1 (human)): 107%
residual activity (PRKACG (human)): 83.2%
residual activity (EGFR (human)): 110%
residual activity (MYO3B (human)): 97.5%
residual activity (EPHA6 (human)): 88.2%
residual activity (NUAK2 (human)): 89.2%
residual activity (OXSR1 (human)): 85.6%
residual activity (HIPK3 (human)): 116%
residual activity (TLK2 (human)): 94.8%
